Reference: patent US10322132B2, “Prevention or treatment of uratic or gouty diseases” (SHANTON PHARMA CO., LTD., priority 2015, dated 2019)

Experiments:
[1] = test system: IL-1β, IL-6, KC and TNFα; assay: Air sacculitis (MSU-induced air sacs), cytokines in lavage fluid; details: for IL-1β / KC / TNF-α: lavage fluid supernatant, mean, n = 8
Procedure: (§2) The sterile MSU crystals were added to 5 mL of sterilized saline before injected into air sacs.
(§3) Male Wistar rats were raised for one week and then randomly divided into 6 groups. Animals were anesthetized and then injected with 24 mL of sterile air in their backs. The animals received the second injection of air 4 days later. On day 7, the rats in the blank group and model group were intragastrically administered with the solvent at a dose of 10 mL/kg; the rats in the dexamethasone group were administered by intraperitoneal injection with dexamethasone at a dose of 5 mg/kg; the rats in the colchicine group were intragastrically administered with colchicine at a dose of 5 mg/kg. […] One hour after administration, the rats in the blank group were injected with 5 mL of saline into the air sacs at the back, and the rats from other groups were injected with 5 mL of MSU crystal suspension (1 mg/mL) into the air sacs at the back. Four hours later, the lavage fluid in the air sacs was taken, and a portion of the lavage fluid was used for cytological analysis. The remaining was centrifuged at 8000 rpm for 15 min, and the supernatant was stored at −80° C. for the detection of cytokines IL-1β, IL-6, KC and TNFα. The test results were shown as mean±SEM and statistically analyzed by t-test.

[2] = test system: serum uric acid; assay: Uric acid-lowering test in monkeys having hyperuricemia (UA subcutaneous injection); type: in vivo, cynomolgus monkeys; parameters: Reduction rate or serum uric acid: concentration or dose not given beside the values; details: for Content of serum uric acid: Administration group
Procedure: The experiment was conducted by reference to Komoriya K, Osada Y, Hasegawa M, Horiuchi H, Kondo S, Couch R C, Griffin T B. Hypouricemic effect of allopurinol and the novel xanthine oxidase inhibitor TEI-6720 in chimpanzees. Eur J Pharmacol. 1993 Dec. 21; 250(3): 455-60.
In the Model group, three non-naïve cynomolgus monkeys (1 #, 2 # and 3 #) were administered with UA by subcutaneous injection at the nape. Blood was collected from the vein before UA administration and 0.5 h, 1 h, 2 h, 4 h, 6 h and 24 h after UA administration. The blood was left still at room temperature. The serum was collected by centrifugation. The content of serum uric acid was measured.
In the Administration group, three non-naïve cynomolgus monkeys (1 #, 2 # and 3 #) were administered with the test sample by intravenous injection after 2 weeks of clearance. Blood was collected from the vein before administration and 2 h after administration of test sample. Then, the monkeys were administered with UA by subcutaneous injection at the nape and blood was collected from the vein 1 h, 2 h and 4 h after the UA administration. The blood was left still at room temperature. The serum was collected by centrifugation. The content of serum uric acid was measured. Reduction rate of serum uric acid in healthy monkeys administered with test sample=(average uric acid content before administration−average uric acid content 2 h after administration of test sample)/average uric acid content before administration*100%, Reduction rate of serum uric acid in monkeys having hyperuricemia after administration of test sample=(uric acid content after UA administration in the model group−uric acid content after UA administration in the administration group)/uric acid content in the model group*(100%).
That was, the samples were collected before administration, 2 h after administration of test sample and 1 h, 2 h and 4 h after UA administration for determination of the serum uric acid content. The contents of serum uric acid in the model group and the administration group and the reduction rates of serum uric acid were shown in the following Tables 3-1, 3-2 and 3-3, respectively.

[3] = test system: MSU-induced gouty arthritis; assay: MSU-induced gouty arthritis, toe volume; type: in vivo, Male Wistar rats; details: for Inhibition of toe volume change (%) / Toe volume change: 9 h after MSU; for Inhibition of toe volume change (%): vs model group; for effect on increase of the toe volumes in the test rats (in words): compared with the model group
Procedure: The experiment was done by reference to Hsin-Pai Lee, Shi-Ying Huang, Yen-You Lin. Soft Coral-Derived Lemnalol Alleviates Monosodium Urate-Induced Gouty Arthritis in Rats by Inhibiting Leukocyte Infiltration and iNOS, COX-2 and c-Fos Protein Expression. […] 2013, 11, 99-113.
One gram of uric acid was weighed, introduced into 200 mL of boiling water and heated. Then, NaOH (2 mol/L) was added until pH reached 9. The solution became clear, and was cooled at room temperature and then left still overnight. MSU was obtained after filtration, which was dried at 60° C. for 24 h and then sterilized at a high temperature of 180° C.
(§1) The toe volumes of the rats were measured one day prior to the experiment. The rats were administered with the solvent by subcutaneous injection in the model group at a dose of 5 mL/kg, while the rats were administered with test samples by subcutaneous injection in administration groups at a dose of 5 mg/kg. Rats were anesthetized immediately after administration and were injected with 0.09 mL of MSU suspension into the joint cavity of the left ankle. The volume of the left toe was measured in rats 9 h after the injection of MSU into the ankle joint cavity.
as §1, with “dose of 15 mL/kg, while” for “dose of 5 mL/kg, while”, “dose of 15 mg/kg or 10 mg/kg. Rats” for “dose of 5 mg/kg. Rats”
The toe volumes of rats were measured one day prior to the experiment. The rats were administered with the solvent by subcutaneous injection in the model group at a dose of 15 mL/kg, while the rats were administered with the test sample by subcutaneous injection in administration group at a dose of 15 mg/kg. Rats were anesthetized immediately after administration and were injected with 0.09 mL of MSU suspension into the joint cavity of the left ankle. The volume of the left toe in each rat was measured 9 h after the injection of MSU into the ankle joint cavity.

[4] = test system: MSU-induced air sacs; assay: Air sacculitis (MSU-induced air sacs), leukocyte counts in lavage fluid; details: for Leukocyte count: Basophil / Leukocyte count: Eosinocyte / Leukocyte count: Lymphocyte / Leukocyte count: Monocyte / Leukocyte count: Neutrophil / Total cell count: lavage fluid 4 h after MSU, mean ± SEM, n = 8;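 on all read-outs here: male Wistar rats with dorsal air sacs, dosed 1 h before injecting MSU crystal suspension, compared with saline-injected blank and vehicle-treated model groups, cytological analysis of lavage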
Procedure: as §2, §3

[5] = Example 5, 15 mg/kg or 10 mg/kg
[6] = Example 5, 15 mg/kg subcutaneous

CCCCCn1c(=O)[nH]c(=O)c2[nH]c(Cl)nc21 [Compound A, 8-chloro-3-pentyl-3,7-dihydro-1H-purine-2,6-dione]
IL-1β ([1]; 30 mg/kg intragastric): 79.2 pg/mL | KC ([1]; 30 mg/kg intragastric): 8742.1 pg/mL | TNF-α ([1]; 30 mg/kg intragastric): 29.7 pg/mL | IL-1β ([1]; 100 mg/kg intragastric): 88.6 pg/mL | KC ([1]; 100 mg/kg intragastric): 5757.4 pg/mL | TNF-α ([1]; 100 mg/kg intragastric): 18.7 pg/mL | effect on increase of IL-6, KC and TNFα (in words) ([1]; oral dose of 100 mg/kg): significantly inhibit | Reduction rate or serum uric acid ([2]; 1 h after UA administration vs model group, animal 1#): 35.5% | Reduction rate or serum uric acid ([2]; 1 h after UA administration vs model group, animal 2#): 26.2% | Reduction rate or serum uric acid ([2]; 1 h after UA administration vs model group, animal 3#): 56.0% | Reduction rate or serum uric acid ([2]; 1 h after UA administration vs model group, mean): 39.2% | Reduction rate or serum uric acid ([2]; 2 h after UA administration vs model group, animal 1#): 67.1% | Reduction rate or serum uric acid ([2]; 2 h after UA administration vs model group, animal 2#): 37.2% | Reduction rate or serum uric acid ([2]; 2 h after UA administration vs model group, animal 3#): 45.5% | Reduction rate or serum uric acid ([2]; 2 h after UA administration vs model group, mean): 49.1% | Reduction rate or serum uric acid ([2]; 2 h after administration of test sample vs before administration (healthy monkeys), animal 1#): 46.4% | Reduction rate or serum uric acid ([2]; 2 h after administration of test sample vs before administration (healthy monkeys), animal 2#): 30.2% | Reduction rate or serum uric acid ([2]; 2 h after administration of test sample vs before administration (healthy monkeys), animal 3#): 1.56% | Reduction rate or serum uric acid ([2]; 2 h after administration of test sample vs before administration (healthy monkeys), mean): 26.1% | Reduction rate or serum uric acid ([2]; 4 h after UA administration vs model group, animal 1#): 64.3% | Reduction rate or serum uric acid ([2]; 4 h after UA administration vs model group, animal 2#): 77.1% | Reduction rate or serum uric acid ([2]; 4 h after UA administration vs model group, animal 3#): 32.6% | Reduction rate or serum uric acid ([2]; 4 h after UA administration vs model group, mean): 58.0% | Content of serum uric acid ([2]; 1 h after UA administration, animal 1#): 75.3 µmol/L | Content of serum uric acid ([2]; 1 h after UA administration, animal 2#): 97.5 µmol/L | Content of serum uric acid ([2]; 1 h after UA administration, animal 3#): 53.1 µmol/L | Content of serum uric acid ([2]; 1 h after UA administration, mean): 75.3 µmol/L | Content of serum uric acid ([2]; 2 h after UA administration, animal 1#): 26.6 µmol/L | Content of serum uric acid ([2]; 2 h after UA administration, animal 2#): 58.0 µmol/L | Content of serum uric acid ([2]; 2 h after UA administration, animal 3#): 37.0 µmol/L | Content of serum uric acid ([2]; 2 h after UA administration, mean): 40.5 µmol/L | Content of serum uric acid ([2]; 4 h after UA administration, animal 1#): 28.4 µmol/L | Content of serum uric acid ([2]; 4 h after UA administration, animal 2#): 12.3 µmol/L | Content of serum uric acid ([2]; 4 h after UA administration, animal 3#): 43.2 µmol/L | Content of serum uric acid ([2]; 4 h after UA administration, mean): 28.0 µmol/L | Content of serum uric acid ([2]; intravenous, 2 h after administration of test sample (before UA), animal 1#): 12.3 µmol/L | Content of serum uric acid ([2]; intravenous, 2 h after administration of test sample (before UA), animal 2#): 37.0 µmol/L | Content of serum uric acid ([2]; intravenous, 2 h after administration of test sample (before UA), animal 3#): 34.6 µmol/L | Content of serum uric acid ([2]; intravenous, 2 h after administration of test sample (before UA), mean): 28.0 µmol/L | effect on content of serum uric acid in the test monkeys (in words) ([2]; compared to the model group (self-comparation)): significantly reduce | Change of toe volume ([3]; Example 4, 5 mg/kg subcutaneous, 9 h after MSU injection into left ankle joint cavity): 0.416 mL | Inhibition of toe volume change (%) ([3]; Example 4, 5 mg/kg subcutaneous): 17.5% | effect on increase of the toe volumes in the test rats (in words) ([3]; Example 4, 5 mg/kg): significantly inhibit | effect on increase of the toe volumes in the test rats (in words) [3, 5]: significantly inhibit | Toe volume change [3, 6]: 0.264 mL | Inhibition of toe volume change (%) [3, 6]: 34.7% | Leukocyte count: Basophil ([4]; 30 mg/kg intragastric): 0 ± 0 *10^4/air sacs | Leukocyte count: Eosinocyte ([4]; 30 mg/kg intragastric): 5.8 ± 1.2 *10^4/air sacs | Leukocyte count: Lymphocyte ([4]; 30 mg/kg intragastric): 8.1 ± 1.2 *10^4/air sacs | Leukocyte count: Monocyte ([4]; 30 mg/kg intragastric): 174.2 ± 35.4 *10^4/air sacs | Leukocyte count: Neutrophil ([4]; 30 mg/kg intragastric): 18.6 ± 6.4^$ *10^4/air sacs | Total cell count ([4]; 30 mg/kg intragastric): 206.8 ± 42.9^$ *10^4/air sacs | Leukocyte count: Basophil ([4]; 100 mg/kg intragastric): 0 ± 0 *10^4/air sacs | Leukocyte count: Eosinocyte ([4]; 100 mg/kg intragastric): 4.6 ± 1.4 *10^4/air sacs | Leukocyte count: Lymphocyte ([4]; 100 mg/kg intragastric): 8.0 ± 1.9 *10^4/air sacs | Leukocyte count: Monocyte ([4]; 100 mg/kg intragastric): 151.4 ± 24.1 *10^4/air sacs | Leukocyte count: Neutrophil ([4]; 100 mg/kg intragastric): 12.2 ± 3.4^$ *10^4/air sacs | Total cell count ([4]; 100 mg/kg intragastric): 176.2 ± 29.6^$$$ *10^4/air sacs | effect on increase of the total cell count and neutrophil count in the lavage fluid caused by MSU (in words) ([4]; compound A at the oral doses of 30 mg/kg and 100 mg/kg): significantly inhibit

CCCCCn1c(=O)n(C)c(=O)c2[nH]c(Cl)nc21 [Compound D, 8-chloro-1-methyl-3-pentyl-3,7-dihydro-1H-purine-2,6-dione]
effect on increase of the toe volumes in the test rats (in words) [3, 5]: significantly inhibit | Toe volume change [3, 6]: 0.232 mL | Inhibition of toe volume change (%) [3, 6]: 42.6%
